Data published in US7666635B2, “Process for the preparation of amides” (priority 1997, dated 2010).
Like-named read-outs stand apart in the source and are kept apart here.

Tests used:
Actinomadura spadix 45O1 = test: Conversion rates of aliphatic nitriles using the isolated bacteria (enrichment medium); assay type: cell-based
Experimental: (§1) a) Various soil samples were inoculated with various nitriles or amides as a C and N source in the enrichment medium according to Table 1 and incubated at 37° C. or 45° C. for 7 10 days. The cultures were then transferred to the same medium and again cultured at 37° C. for 7 10 days. The whole process was repeated 3 times. The cultures were then diluted and plated out in order to obtain individual colonies. The plates were incubated at 37° C. for 5 days. The different colonies were then tested for the desired activity.
(§2) […] as a C and N source for Amycolatopsis NE31 (DSMZ 11616) Actinomadura spadix E3733 and Actinomadura spadix E3736, azelanitrile served as a C and N source for Amycolatopsis NA40 (DSMZ 11617) and Actinomadura spadix 45A32, n-octanenitrile served as a C and N source for Actinomadura spadix 4501 and cyanoacetic acid served as a C and N source for Actinomadura spadix C15.
(§3) (1) For determination of the nitrile hydratase activity, a reaction mixture (2 ml) containing 3-cyanopyridine (1.0 M, 1.0 ml), potassium phosphate buffer (pH 7.0, 0.1 M, 0.5 ml) and 0.5 ml of cell suspension were incubated at 20° C. for 30 min with stirring. The reaction was stopped by addition of 0.2 ml of 3 N HCl. After centrifuging briefly, the nicotinamide formed was determined by means of HPLC (Shimadzu SPD 6A system using a C18 column (Develosil ODS-HG-5. […]); eluent: 10 mM KH2PO4/H3PO4 (pH 2.8)/acetonitrile 9:1 (v/v); flow rate: 1 ml/min; the absorption was measured at 230 nm). The specific activity was expressed as µmol of nicotinamide formed/ml/min/OD610 nm.
(§4) The reaction rates of aliphatic nitriles in the enrichment medium (Table 1) with isolated bacteria is summarized in Table 5, the effects of inducers and cofactors in the basal medium (Table 2) is summarized in Table 4 and the activity comparison of Amycolatopsis to Rhodoccus in the basal medium (Table 2) is summarized in Table 6.

[1] = tested on: Actinomadura spadix 45A32; test: as above; assay type: cell-based
Experimental: as §1, §2, §3, §4

[2] = tested on: Amycolatopsis NA40 (DSMZ 11617); test: as above; assay type: cell-based
Experimental: as §1, §2, §3, §4

[3] = tested on: Actinomadura spadix E3736; test: as above; assay type: cell-based
Experimental: as §1, §2, §3, §4

[4] = tested on: Amycolatopsis NE31 (DSMZ 11616); test: as above; assay type: cell-based
Experimental: as §1, §2, §3, §4

[5] = tested on: Actinomadura spadix E3733; test: as above; assay type: cell-based
Experimental: as §1, §2, §3, §4

[6] = tested on: Rhodococcus rhodochrous J1; test: Substrate specificity of the Rhodococcus strains; assay type: cell-based
Experimental: (§5) Rhodococcus rhodochrous J1 was cultured for 72 h in the medium described in EP-A 0 307 926. The microorganisms Rhodoccus GF674, GF578, GF270 and GF376 were cultured in the following media at pH 7.0 for up to 96 h:
(§6) The substrate specificity is summarized as relative activity in Table 15.

[7] = tested on: NA40 nitrile hydratase (resting NA40 cells); test: Substrate specificity of resting NA40 cells; assay type: cell-based, Amycolatopsis NA40
Experimental: (3) For determination of the activity of NA40 with respect to a number of substrates, cells having a dry weight of 0.0388 mg were incubated in the buffer described above. The reaction was started by addition of the appropriate substrate and incubated at 20° C. with shaking for 10 min. The reaction was stopped by addition of 0.2 ml of 2 N HCl and the reaction mixture was briefly centrifuged. The supernatant was analysed by means of HPLC or gas chromatography.

[8] = tested on: purified nitrile hydratase from NA40; test: Substrate specificity of the purified nitrile hydratase; assay type: biochemical, Amycolatopsis NA40
Experimental: The substrate specificity was determined analogously to Example 2 (1).
1.7 Units of enzyme were added to the reaction mixture (2.0 ml). The reaction mixture contained the respective substrate in 45 mM phosphate buffer (pH 7.0).

Rhodococcus GF578 = test: Substrate specificity of the Rhodococcus strains; assay type: cell-based
Experimental: as §5
(§7) Rhodoccus GF674 in a medium comprising yeast extract 1.0 g/l, fructose 5.0 g/l, malt extract 10.0 g/l, acetamide 5.0 g/l, KH2PO4 2.0 g/l, MgSO47H2O 0.5 g/l and CoCl2.6H2O 10.0 mg. Rhodoccus GF578 in a medium containing yeast extract 1.0 g/l, fructose 15.0 g/l, malt extract 10.0 g/l, acetamide 25.0 g/l, KH2PO4 2.0 g/l, MgSO47H2O 0.5 g/l and CoCl2.6H2O 5.0 mg. […] Rhodoccus GF3 76 in a medium containing yeast extract 1.0 g/l, sodium citrate 10.0 g/l, malt extract 15.0 g/l, butyramide 7.5 g/l, KH2PO4 2.0 g/l, MgSO4.7H2O 0.5 g/l and CoCl2.6H2O 15.0 mg.
as §6

Rhodococcus GF674 = test: Substrate specificity of the Rhodococcus strains; assay type: cell-based
Experimental: as §5, §7, §6

Rhodococcus GF270 = test: Substrate specificity of the Rhodococcus strains; assay type: cell-based
Experimental: as §5, §7, §6

Rhodococcus GF376 = test: Substrate specificity of the Rhodococcus strains; assay type: cell-based
Experimental: as §5, §7, §6

[9] = tested on: nitrile hydratase of NA40; test: Determination of the KM value (Lineweaver-Burk diagram); assay type: biochemical, Amycolatopsis NA40; details: substance as substrate; 20 ° C., 45 mM phosphate buffer, pH 7.0
Experimental: The KM value was determined to be 41.7 mM for 3-cyanopyridine and to be 3.7 mM for acrylonitrile by means of the Lineweaver-Burk diagram. […] This is one of the main advantages of NA40.

[10] = tested on: purified nitrile hydratase from NA40; test: Substrate specificity of the purified nitrile hydratase; assay type: biochemical, Amycolatopsis NA40; details: pH 7
Actinomadura spadix C15 = test: Conversion rates of aliphatic nitriles using the isolated bacteria (enrichment medium); assay type: cell-based
Experimental: as §1, §2, §3, §4

Amycolatopsis NA40 = test: Effect of methanol on resting cells of NA40; assay type: cell-based; details: for Relative activity: 10 min
Experimental: The reaction was carried out for 10 min in the presence of 0 20% (v/v) methanol according to Table 13.

Rhodoccus GF578 = test: Tolerance of 3-cyanopyridine on the activity of resting cells; assay type: cell-based, Rhodococcus GF578; details: up to a substrate concentration of 8%, resting cells 15 min at 20° C.
Experimental: (§8) In order to test the tolerance of 3-cyanopyridine, resting cells were incubated for 15 min at 20° C. at concentrations of 3-cyanopyridine between 1 and 10% (w/v) and the cells were then removed by centrifugation. After washing the cells with 0.85% NaCl, the remaining activity was measured.
(§9) The tolerance of 3-cyanopyridine as a substrate was tested at various substrate concentrations.

Rhodoccus GF674 = test: as above; assay type: cell-based, Rhodococcus GF674; details: substrate concentration of 4% (w/v), resting cells 15 min at 20° C.
Experimental: as §8, §9

[11] = tested on: Amycolatopsis NA40 (DSMZ 11617); test: Activity for 3-cyanopyridine, microorganism (comparison in basal medium); assay type: cell-based
Experimental: as §3, §4

[12] = tested on: Rhodococcus rhodochrous J1; test: as above; assay type: cell-based
Experimental: as §3, §4

[13] = tested on: Purified enzyme from NA40 (nitrile hydratase); test: Activity for 3-cyanopyridine, purified enzyme; assay type: biochemical, Amycolatopsis NA40
Experimental: […] The reaction was stopped by addition of 0.2 ml of 3 N HCl. After centrifuging briefly, the nicotinamide formed was determined by means of HPLC (Shimadzu SPD 6A system using a C18 column (Develosil ODS-HG-5. […]); eluent: 10 mM KH2PO4/H3PO4 (pH 2.8)/acetonitrile 9:1 (v/v); flow rate: 1 ml/min; the absorption was measured at 230 nm). The specific activity was expressed as µmol of nicotinamide formed/ml/min/OD610 nm.
as §4

Rhodoccus GF376 = test: Tolerance of 3-cyanopyridine on the activity of resting cells; assay type: cell-based, Rhodococcus GF376; details: substrate concentration of 10% (w/v), resting cells 15 min at 20° C.
Experimental: as §8, §9

Rhodoccus GF270 = test: as above; assay type: cell-based, Rhodococcus GF270; details: substrate concentration of 4% (w/v), resting cells 15 min at 20° C.
Experimental: as §8, §9

Rhodoccus rhodochrous J1 = test: as above; assay type: cell-based, Rhodococcus rhodochrous J1; details: substrate concentration of 2% (w/v), resting cells 15 min at 20° C.
Experimental: as §8, §9

[14] = molecular target: T1, Purified enzyme from J1 (nitrile hydratase) (Rhodococcus rhodochrous, UniProt P21219+P21220); test: Activity for 3-cyanopyridine, purified enzyme; assay type: biochemical
T1 construct: host or cells: Rhodococcus rhodochrous J1 (native producer)
T1 sequence (P21219 2-203 limits assumed): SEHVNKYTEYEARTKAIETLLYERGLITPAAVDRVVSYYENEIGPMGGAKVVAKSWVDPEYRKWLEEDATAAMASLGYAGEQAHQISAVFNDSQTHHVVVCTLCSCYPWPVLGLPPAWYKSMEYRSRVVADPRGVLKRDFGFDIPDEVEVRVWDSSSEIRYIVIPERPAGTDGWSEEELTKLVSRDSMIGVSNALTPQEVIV
T1 sequence (P21220 whole entry): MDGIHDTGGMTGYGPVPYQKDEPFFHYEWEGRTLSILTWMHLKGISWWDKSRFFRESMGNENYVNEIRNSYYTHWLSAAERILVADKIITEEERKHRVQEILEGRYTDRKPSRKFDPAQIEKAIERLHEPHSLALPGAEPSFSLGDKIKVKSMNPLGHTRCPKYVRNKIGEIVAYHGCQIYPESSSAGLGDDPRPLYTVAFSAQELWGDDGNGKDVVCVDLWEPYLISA

[15] = Rhodococcus rhodochrous J1, 3-cyanopyridine = 100
[16] = resting NA40 cells, 20° C., 10 min, 3-cyanopyridine = 100, substrate concentration per Table 8
[17] = purified enzyme, 3-cyanopyridine = 100
[18] = Rhodococcus GF578, 3-cyanopyridine = 100
[19] = Rhodococcus GF674, 3-cyanopyridine = 100
[20] = Rhodococcus GF270, 3-cyanopyridine = 100
[21] = Rhodococcus GF376, 3-cyanopyridine = 100

Structure (SMILES): CCCCCCCC#N [n-octanenitrile]
- Specific activity (Actinomadura spadix 45O1; strain 45O1): 4.45 μmol/ml/min/OD
- Total activity (Actinomadura spadix 45O1; strain 45O1): 32.2 µmol/mL/min
- Growth (OD610 nm) (Actinomadura spadix 45O1; strain 45O1, nitrile as substrate in enrichment medium): 7.24 OD610 nm

Structure (SMILES): N#CCCCCCCCC#N [Azelanitrile]
- Specific activity ([1]; strain 45A32): 3.23 μmol/ml/min/OD
- Total activity ([1]; strain 45A32): 18.8 µmol/mL/min
- Growth (OD610 nm) ([1]; strain 45A32, nitrile as substrate in enrichment medium): 5.81 OD610 nm
- Specific activity ([2]; strain NA40): 5.57 μmol/ml/min/OD
- Total activity ([2]; strain NA40): 33.0 µmol/mL/min
- Growth (OD610 nm) ([2]; strain NA40, nitrile as substrate in enrichment medium): 5.92 OD610 nm

Structure (SMILES): N#CCCCCC#N [Adiponitrile]
- Specific activity ([3]; strain E3736): 2.21 μmol/ml/min/OD
- Total activity ([3]; strain E3736): 3.00 µmol/mL/min
- Growth (OD610 nm) ([3]; strain E3736, nitrile as substrate in enrichment medium): 1.36 OD610 nm
- Specific activity ([4]; strain NE31): 0.141 μmol/ml/min/OD
- Total activity ([4]; strain NE31): 0.377 µmol/mL/min
- Growth (OD610 nm) ([4]; strain NE31, nitrile as substrate in enrichment medium): 2.68 OD610 nm
- Specific activity ([5]; strain E3733): 0.214 μmol/ml/min/OD
- Total activity ([5]; strain E3733): 0.347 µmol/mL/min
- Growth (OD610 nm) ([5]; strain E3733, nitrile as substrate in enrichment medium): 1.62 OD610 nm

Structure (SMILES): C=CC#N [Acrylonitrile]
- relative activity (substrate specificity) [6, 15]: 478%
- Relative activity [7, 16]: 115%
- Relative activity, Enzyme reaction [8, 17]: 94%
- relative activity (substrate specificity) (Rhodococcus GF578; [18]): 101%
- relative activity (substrate specificity) (Rhodococcus GF674; [19]): 147%
- relative activity (substrate specificity) (Rhodococcus GF270; [20]): 192%
- relative activity (substrate specificity) (Rhodococcus GF376; [21]): 257%
- Km [9]: 3.7 mM

Structure (SMILES): N#Cc1ccc(Cl)cc1 [p-Chlorobenzonitrile]
- relative activity (substrate specificity) [6]: 13%
- Total activity [10]: 2.30 µmol/mL/min
- Relative activity [7]: 16%
- Relative activity, Enzyme reaction [8]: 13%
- relative activity (substrate specificity) (Rhodococcus GF578): 0%
- relative activity (substrate specificity) (Rhodococcus GF674): 0%
- relative activity (substrate specificity) (Rhodococcus GF270): 0%
- relative activity (substrate specificity) (Rhodococcus GF376): 0%

Structure (SMILES): N#CCC(=O)O [Cyanoacetic acid]
- Specific activity (Actinomadura spadix C15; strain C15): 3.43 μmol/ml/min/OD
- Total activity (Actinomadura spadix C15; strain C15): 7.01 µmol/mL/min
- Growth (OD610 nm) (Actinomadura spadix C15; strain C15, substrate in enrichment medium): 2.04 OD610 nm

Structure (SMILES): CO [methanol]
- activity of resting NA40 cells (Amycolatopsis NA40; addition of 5 15% methanol): increased
- Relative activity (Amycolatopsis NA40; methanol 5 % (v/v), 0 % = 100): 123%
- Relative activity (Amycolatopsis NA40; methanol 10 % (v/v)): 128%
- Relative activity (Amycolatopsis NA40; methanol 15 % (v/v)): 130%
- Relative activity (Amycolatopsis NA40; methanol 20 % (v/v)): 105%

Structure (SMILES): N#Cc1cccnc1 [3-Cyanopyridine]
- nitrile hydratase activity (Rhodoccus GF578): remained nearly constant
- relative activity (substrate specificity) [6, 15]: 100%
- nitrile hydratase activity decreased by the factor (Rhodoccus GF674): 1.4
- Activity for 3-cyanopyridine [11]: 303 µmol/mL/min
- Activity for 3-cyanopyridine [12]: 314
- Activity for 3-cyanopyridine [13]: 1110 μmol/min/mg protein
- nitrile hydratase activity decreased by the factor (Rhodoccus GF376): 1.25
- nitrile hydratase activity decreased by the factor (Rhodoccus GF270): 1.17
- nitrile hydratase activity decreased by the factor (Rhodoccus rhodochrous J1): 1.4
- Relative activity [7, 16]: 100%
- Relative activity, Enzyme reaction [8, 17]: 100%
- Activity for 3-cyanopyridine [14]: 371 μmol/min/mg protein
- relative activity (substrate specificity) (Rhodococcus GF578; [18]): 100%
- relative activity (substrate specificity) (Rhodococcus GF674; [19]): 100%
- relative activity (substrate specificity) (Rhodococcus GF270; [20]): 100%
- relative activity (substrate specificity) (Rhodococcus GF376; [21]): 100%
- Km [9]: 41.7 mM
